Assay results published in patent publication US5849922A, “Preparation of substituted alkenoic acids” (Eli Lilly and Company, priority 1997, dated 1998).

Tested on: TXA2 agonist activity
Experiment: Absence of Agonist Activity (pressor response in pithed rats)
Assay type: in vivo
From the text: 3. Absence of Agonist Activity.

Row | Compound | pressor response following i.v. administration (i.v., doses up to 10 mg/kg) | increase in the mean arterial pressure (0.1 mg/kg i.v., at one minute after dosing)
1 | O=C(O)CCCC/C=C(\c1ccc(-c2nc(C(=O)NCCCCC3CCCCC3)co2)cc1)c1cccnc1 [Example 2, (E)-7-[4-[4-[[(4-Cyclohexylbutyl)amino]carbonyl]-2-oxazolyl]phenyl]-7-(3-pyridyl)hept-6-enoic Acid] | absence of a pressor response | 
2 | O=C(O)CCC/C=C\CC1C2CCC(C2)C1NS(=O)(=O)c1ccccc1 (centres unmarked) [Example S-145] |  | transient, but significant, increase in the mean arterial pressure
